Here are results for eleven compounds from patent publication US7566722B2, “Triazolopyrimidine derivatives as ADP P2Y12 receptor antagonists” (Janssen Pharmaceutica, N.V., priority 2006, dated 2009).

One assay addresses T1, P2Y12 receptor (Homo sapiens, UniProt Q9H244).
T1 construct: expressed in transfected cells
In words: Whole cell receptor binding assay, 2-MeS[3H]-ADP. Particulars: HEK 293 cells stably transfected with P2Y12; 2-MeS[3H]-ADP 3 nM; 30 min at 37° C.; read-out: Inhibition of Receptor Binding (IC50 μM). Here is the method: A whole cell-binding assay for 2-MeS [^3H]-ADP (Custom synthesized by Amersham BioScience, Piscataway, N.J.) to the P2Y12 receptor was performed.
A P2Y12 cDNA containing hygromycin resistant gene was transfected in HEK 293 cells. A stable cell line was obtained by a cloning selection method. The cells were cultured in DMEM supplemented with 10% FBS and 1× of p/s.
On the day of the assay, the cells were harvested and resuspended in 0.25% BSA-DMEM and adjusted to a cell concentration of 1.6×10^6/ml. 15 μl of each compound was mixed with 120 μl of cell suspension in 96 well assay plates and incubated for 5 min prior to the addition of the radio-labeled ligand 2-MeS[^3H]-ADP (3 nM final in 0.25% BSA-DMEM) or unlabeled […] (for non-specific binding). The reaction was then incubated for 30 min at 37° C. and stopped by adding cold DMEM. The labeled and unlabeled cells were separated by a filtration method using a Packard Filtermate 196 on to the unfilter-96 GF/B plate. The plates were dyed in a 37° C. oven for 1-2 hours and 50 μl of MicroScint-20 (PerkinElmer) was added to each well. The radioactivity was measured using a TOPCOUNT beta counter (Packard). The percent inhibition for each compound was calculated by the change in radioactivity as a % inhibition of the control to obtain an IC50, as shown in Table 2.

For a further assay, the system named is platelets. Description: In vitro platelet aggregation (ADP-induced, washed platelets). Particulars: Homo sapiens, washed platelets from healthy volunteers, agonist giving 60-70% aggregation, % inhibition of control ADP response. It is filed as cell-based. Here is the method: Platelet aggregation studies were performed according to a published method (Bednar, B., Condra, C., Gould, R. J., and Connolly, T. M., Throm. Res., 77:453-463 (1995). Platelet-rich plasma (PRP) concentrates prepared from healthy volunteers who were aspirin free for at least 7 days by venipuncture using ACD-A as anticoagulant was purchased from Biological Specialties, Inc. (Colmar, Pa.). PRP was centrifuged at 730 g for 15 min. The platelet pellet was washed twice in CGS buffer (13 mM sodium citrate, 30 mM glucose, 120 mM NaCl, pH 6.5) containing 1 μ/ml apyrase (grade V, Sigma-Aldrich, St. Louis, Mo.), 1 mM EGTA, and resuspended in Tyrode's buffer (140 mM NaCl, 2.7 mM KCl, 12 mM NaHCO3, 0.76 mM Na2HPO4, 5.5 mM dextrose, 5.0 mM Hepes, 0.2% BSA, pH 7.4). The platelets were diluted to 3×10^8 platelets/ml and kept >45 min at 37° C. before use. 105 μl of washed platelets, 2 mM CaCl2 and […] of fibrinogen were added to a 96-well microliter plate.
Platelet aggregation was initiated by the addition of serial concentrations of ADP (BioData Corp. Horsham, Pa.). Buffer was added to one set of control wells. The assay plate was stirred constantly and intermittently placed in a microplate reader (Softmax, Molecular Devices, Menlo Park, Calif.) to read optical density (650 nm) at 0 and 5 minutes after the addition of the compound solutions. Aggregation was calculated as the decrease in optical density between the time 0- and 5-min measurements and expressed as % of aggregation. For the inhibition assay, platelet aggregation was conducted as described above except for compound additions. Test compounds were prepared in 100% DMSO and stored.
On the day of the assay, test compounds were diluted in the buffer containing 3% of DMSO as a 10× working solution. 15 μl of compound solutions were added to 105 μl of platelets 5 min prior to the addition of CaCl2 and fibrinogen.

A further assay concerns the target T2, ADP P2Y12 receptor (Homo sapiens, UniProt Q9H244).
T2 construct: expressed in transfected cells
Description: FLIPR calcium assay transducing Gi-coupled signaling to the Gq pathway (inhibition of ADP-induced calcium mobilization). The assay is classed as cell-based. Particulars: HEK 293 cells co-transfected with P2Y12 and Gqi5, ADP at EC60-70 dose. From the text:
A FLIPR Calcium Assay Transducing Gi-Coupled Signaling to the Gq Pathway
The ADP P2Y12 subtype is a Gi coupled GPCR, which mediates inhibition of adenylate cyclase leading to decreased cAMP while Gq proteins primarily activate phospholipase C, which stimulates inositol-1,4,5-triphosphate (IP3) formation and a subsequent increase in intracellular Ca^2+ concentration, which can be easily measured by FLIPR. Prior to the development of a method to convert a Gi coupled GPCR signaling to a Gq coupled GPCR signaling, a significant barrier existed for the functional testing and screening of Gi coupled GPCRs. One popular method, GTPγS migration, is slow, produces a small signal and generates radioactive waste. The discovery that a small switch in the amino acid sequence in the Gi protein could convert it to a protein mediating a Gq coupled response has led to the development of robust, high throughput assays for this valuable receptor subtype.
The FLIPR-based HTS assay transducing the Gi signaling to the Gq pathway is described below.
pcDNA3hygroP2Y12 containing a hygromycin resistance gene and pLEC1-Gqi5-HA containing a neomycin resistance gene (licensed from Molecular Devices, Sunnyvale, Calif.) were co-transfected into Human embryonic kidney (HEK) 293 cells with SuperFect (Qiagen, Valencia, Calif.). Cell clones were selected in the presence of 600 μg/ml hygromycin B (Life Technologies, Carlsbad, Calif.) and 1 mg/ml of G418 (Mediatech, Herndon, Va.). Drug resistant colonies were picked and screened by FLIPR and the gene expression was further confirmed by RT-PCR. Positive clones were maintained in growth medium (DMEM supplemented with 10% FBS, 1× p/s) containing 400 μg/ml of G418 and 200 μg/ml of hygromycin.
The day before the assay, cells are seeded in clear, flat-bottom black-wall, tissue culture treated polystyrene 96- or 384-well plates and incubated at 37° C., 5% CO2. 50 μl of complete dye loading solution (FLIPR Calcium Assay Kit, Molecular Devices) was added to each well containing 100 μl of culture media. The cells were incubated for at least 30 min at 37° C., in 5% CO2 before initiating the assay on the FLIPR. The agonist effect of ADP was tested and EC50 was determined prior to compound testing. The EC60-70 dose was used.
The antagonist compounds were prepared at 4× and the agonists were diluted at 5× the concentration desired in the test wells, and then aliquoted into the sample plates. The sample plates and the cell plate were placed in the FLIPR assay chamber. A first addition (50 μl) was made at the start of reading and a second addition (50 μl) was made after 5 min of reading. Raw fluorescence data was exported for each well and tabulated versus time within an ASCII file. Data was then imported into Excel and the peak response over the basal level was determined. The percent inhibition for each compound was calculated by the change in fluorescent density as a % inhibition of the control ADP response to obtain an IC50, as shown in Table 1 (wherein N/A means Not Applicable).

T1 sequence (Q9H244 whole entry): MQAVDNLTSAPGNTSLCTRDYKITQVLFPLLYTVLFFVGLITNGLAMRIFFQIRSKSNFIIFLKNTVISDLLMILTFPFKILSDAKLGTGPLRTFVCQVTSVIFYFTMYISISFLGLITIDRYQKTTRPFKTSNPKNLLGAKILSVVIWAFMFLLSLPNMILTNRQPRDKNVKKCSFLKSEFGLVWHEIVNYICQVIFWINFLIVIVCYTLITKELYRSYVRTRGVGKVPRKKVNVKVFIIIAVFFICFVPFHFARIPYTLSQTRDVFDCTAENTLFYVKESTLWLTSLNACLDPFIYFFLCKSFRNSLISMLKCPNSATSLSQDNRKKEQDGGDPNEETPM
T2 sequence (Q9H244 whole entry): as above

As to `CCCCNc1nc(SCCC)nc2c1nnn2[C@@H]1C[C@H](c2nnc(C)[nH]2)[C@@H](O)[C@H]1O` [Cpd 13, (1R,2S,3R,5R)-3-(7-butylamino-5-propylsulfanyl-[1,2,3]triazolo[4,5-d]pyrimidin-3-yl)-5-(5-methyl-4H-[1,2,4]triazol-3-yl)-cyclopentane-1,2-diol], the IC50 (commonly the concentration that gives 50% inhibition) at P2Y12 receptor stood at 2.16 µM; with platelets it was 1.39 µM; on ADP P2Y12 receptor it was 2.17 µM.
Consider `CCCSc1nc(N[C@@H]2C[C@H]2c2ccccc2)c2nnn([C@@H]3C[C@H](c4nnn[nH]4)[C@@H](O)[C@H]3O)c2n1` (mixture of isomers) [Cpd 1, (1R,2S,3R,5R)-3-{7-[(1RS,2SR)-2-phenyl-cyclopropylamino]-5-propylsulfanyl-[1,2,3]triazolo[4,5-d]pyrimidin-3-yl}-5-(1H-tetrazol-5-yl)-cyclopentane-1,2-diol], for which the values for the concentration for half-maximal inhibition (IC50) at P2Y12 receptor, with platelets and at ADP P2Y12 receptor were 0.0043 µM, 0.037 µM and 0.037 µM, respectively.
As to `CCCSc1nc(NC[C@H](C)c2ccccc2)c2nnn([C@@H]3C[C@H](c4nnc(C)[nH]4)[C@@H](O)[C@H]3O)c2n1` [Cpd 17, (1S,2R,3R,5R)-3-(5-methyl-4H-[1,2,4]triazol-3-yl)-5-{7-[(2R)-2-phenylpropylamino]-5-propylsulfanyl-[1,2,3]triazolo[4,5-d]pyrimidin-3-yl}-cyclopentane-1,2-diol], the results for the half-inhibitory concentration (IC50) at P2Y12 receptor, with platelets and on ADP P2Y12 receptor were 9.59 µM, > 30 µM and > 30 µM, respectively.
On to `CCCSc1nc(NC[C@@H](C)c2ccccc2)c2nnn([C@@H]3C[C@H](c4nnc(C)[nH]4)[C@@H](O)[C@H]3O)c2n1` [Cpd 16, (1S,2R,3R,5R)-3-(5-methyl-4H-[1,2,4]triazol-3-yl)-5-{7-[(2S)-2-phenylpropylamino]-5-propylsulfanyl-[1,2,3]triazolo[4,5-d]pyrimidin-3-yl}-cyclopentane-1,2-diol], for which the IC50 is 3.88 µM at P2Y12 receptor, > 30 µM in the assay with platelets and > 30 µM at ADP P2Y12 receptor.
With `CCCSc1nc(NCCc2ccccc2)c2nnn([C@@H]3C[C@H](c4nnn[nH]4)[C@@H](O)[C@H]3O)c2n1` [Cpd 12, (1R,2S,3R,5R)-3-(7-phenethylamino-5-propylsulfanyl-[1,2,3]triazolo[4,5-d]pyrimidin-3-yl)-5-(1H-tetrazol-5-yl)-cyclopentane-1,2-diol], the results for the half-inhibitory concentration (IC50) on P2Y12 receptor, with platelets and at ADP P2Y12 receptor were 0.73 µM, 0.292 µM and 0.416 µM, respectively.
`CCCSc1nc(N[C@@H]2C[C@H]2c2ccccc2)c2nnn([C@@H]3C[C@H](Cn4ncnn4)[C@@H](O)[C@H]3O)c2n1` (mixture of isomers) [Cpd 3, (1R,2S,3R,5R)-3-{7-[(1RS,2SR)-2-phenyl-cyclopropylamino]-5-propylsulfanyl-[1,2,3]triazolo[4,5-d]pyrimidin-3-yl}-5-tetrazol-2-ylmethyl-cyclopentane-1,2-diol]: the IC50 on P2Y12 receptor is 0.148 µM; in the assay on platelets it was 1.24 µM; on ADP P2Y12 receptor it was 0.595 µM.
Take `CCCSc1nc(NCCSC)c2nnn([C@@H]3C[C@H](c4nnc(C)[nH]4)[C@@H](O)[C@H]3O)c2n1` [Cpd 19, (1R,2S,3R,5R)-3-[7-(2-methylsulfanyl-ethylamino)-5-propylsulfanyl-[1,2,3]triazolo[4,5-d]pyrimidin-3-yl]-5-(5-methyl-4H-[1,2,4]triazol-3-yl)-cyclopentane-1,2-diol]: the IC50 was 5.09 µM on P2Y12 receptor, > 30 µM with platelets and > 30 µM at ADP P2Y12 receptor.
`CCCSc1nc(NCC(F)(F)F)c2nnn([C@@H]3C[C@H](c4nnc(C)[nH]4)[C@@H](O)[C@H]3O)c2n1` [Cpd 18, (1S,2R,3R,5R)-3-(5-methyl-4H-[1,2,4]triazol-3-yl)-5-[5-propylsulfanyl-7-(2,2,2-trifluoro-ethylamino)-[1,2,3]triazolo[4,5-d]pyrimidin-3-yl]-cyclopentane-1,2-diol]: the IC50 is 6.2 µM at P2Y12 receptor, > 30 µM in the assay with platelets and > 30 µM on ADP P2Y12 receptor.
For the compound `CCCSc1nc(N[C@@H]2C[C@H]2c2ccccc2)c2nnn([C@@H]3C[C@H](c4nnc[nH]4)[C@@H](O)[C@H]3O)c2n1` (mixture of isomers) [Cpd 21, (1R,2S,3R,5R)-3-{7-[(1RS,2SR)-2-phenyl-cyclopropylamino]-5-propylsulfanyl-[1,2,3]triazolo[4,5-d]pyrimidin-3-yl}-5-(4H-[1,2,4]triazol-3-yl)-cyclopentane-1,2-diol], the values for the IC50 on P2Y12 receptor, with platelets and at ADP P2Y12 receptor were 0.0659 µM, 0.046 µM and 0.155 µM, respectively.
On to `CCCSc1nc(N[C@H]2C[C@@H]2c2ccccc2)c2nnn([C@@H]3C[C@H](c4nnn[nH]4)[C@@H](O)[C@H]3O)c2n1` [Cpd 23, (1R,2S,3R,5R)-3-{7-[(1S,2R)-2-phenyl-cyclopropylamino]-5-propylsulfanyl-[1,2,3]triazolo[4,5-d]pyrimidin-3-yl}-5-(1H-tetrazol-5-yl)-cyclopentane-1,2-diol], for which the half-inhibitory concentration (IC50) came to 0.061 µM at P2Y12 receptor, 0.04 µM with platelets and 0.264 µM on ADP P2Y12 receptor.
`CCCSc1nc(NC[C@@H]2CCCO2)c2nnn([C@@H]3C[C@H](c4nnn[nH]4)[C@@H](O)[C@H]3O)c2n1` [Cpd 9, (1R,2S,3R,5R)-3-(5-propylsulfanyl-7-{[(2S)-tetrahydro-furan-2-ylmethyl]-amino}-[1,2,3]triazolo[4,5-d]pyrimidin-3-yl)-5-(1H-tetrazol-5-yl)-cyclopentane-1,2-diol]: the half-inhibitory concentration (IC50) on P2Y12 receptor stood at 0.237 µM; in the assay on platelets, 4.37 µM; at ADP P2Y12 receptor, 2.02 µM.
